According to patent publication US20240247253A1, “PRODUCTION METHOD OF POLYPEPTIDE, TAG, EXPRESSION VECTOR, EVALUATION METHOD OF POLYPEPTIDE, PRODUCTION METHOD OF NUCLEIC ACID DISPLAY LIBRARY, AND SCREENING METHOD” (FUJIFILM Corporation, priority 2021, published 2024):

System: cell-free peptide synthesis system derived from Escherichia coli
Assay: Cell-free biosynthesis of the integrin binding peptide fusion protein with tag, reaction time 10 minutes, ELISA
Type: biochemical
Conditions: for Biosynthesis amount of fusion protein: relative value, control without tag = 1, reaction time 10 minutes, fusion protein SEQ ID NO: 5, SKIK encoded by SEQ ID NO: 110
Procedure: The cell-free biosynthesis of the polypeptide was carried out in a translation solution containing a template DNA, PUREfrex 2.0 (GeneFrontier, PF201-0.25-5), and Aminoacyl tRNA (1). 1.25 μL (62.5 ng) of the template DNA prepared to 50 ng/μL, 2.5 μL of PUREfrex 2.0 Solution I, 0.25 μL of Solution II, 0.5 μL of Solution III, and 0.5 μL of Aminoacyl tRNA (1) were mixed and mixture was subjected to a reaction at 37° ° C. for 1 hour.
The amount of the biosynthesized polypeptide was measured by ELISA. 50 ng of Recombinant Human Integrin αVβ3 (R&D systems, 3050-AV-050) was immobilized in each well of a 96-well plate and blocked with Blocker Casein in PBS (Thermo, 37528), and then a cell-free biosynthesis solution diluted with Can Get Signal Immunoreaction Enhancer Solution I (TOYOBO, NKB-101) containing 5 mmol/L MgCl2 was added thereto, and the mixture was subjected to a reaction at room temperature for 3 hours. After washing with 5 mmol/L MgCl2/0.05% Tween 20-containing phosphate buffered saline (PBS), an anti-Myc antibody (Cell Signaling, 14038S) diluted with Can Get Signal Immunoreaction Enhancer Solution II (TOYOBO, NKB-101) was added thereto, and the mixture was subjected to a reaction at room temperature for 2 hours. After washing with PBS containing 5 mmol/L MgCl2/0.05% Tween 20, Super Signal ELISA Femto Substrate (Thermo, 37075) was added thereto, and the luminescence was measured. The amount of the fusion protein in the cell-free biosynthesis solution was calculated based on a calibration curve created from the fusion protein having a known concentration. The luminescence measurement was performed twice, and the average value of the amounts of the fusion protein was calculated. Table 2-1 and Table 2-2 show relative values of the biosynthesis amounts of respective fusion proteins in a case where the amount of the fusion protein of the control example was set to the reference value 1.
As a comparative control, a SKIK tag represented by SEQ ID NO: 107 was selected. The polypeptide to be biosynthesized is the fusion protein containing the integrin binding peptide, as in Example 1.
Using a template DNA including DNA sequences (SEQ ID NOs: 73 to 98) encoding VKKX tags represented by SEQ ID NOs: 27 to 52 produced in Example 1, and a DNA sequence (SEQ ID NO: 110) encoding a SKIK tag represented by SEQ ID NO: 107 produced in Example 2, the biosynthesis reaction was performed in the same manner as in Example 1 by setting the reaction time to 10 minutes. In the same manner in Example 1, the fusion protein was expressed by the cell-free peptide synthesis system and quantified by ELISA. The measurement was performed twice, and the average value of the amounts of the fusion protein was calculated. […] As control example used in Example 1, the control example of the reference value 1 has a form in which the base sequence (SEQ ID NO: 6) encoding the fusion protein is arranged immediately after the start codon ATG.

Substance	Biosynthesis amount of fusion protein	increase rate of expression level of the fusion protein (text of Example 3, incubation time of biosynthesis reaction 10 minutes) [times]
SEQ ID NO: 27: VKKX tag, amino acid sequence VKKTKT (VKKX Tag)	12.81	–
SEQ ID NO: 107: tag consisting of an amino acid sequence of SKIK, disclosed in WO2016/204198A; comparative control (SKIK Tag) [reference compound]	1.27	1.3
